The values that follow come from article PMC12300041, “Tricyclic Isatin Derivatives as Anti-Inflammatory Compounds with High Kinase Binding Affinity” (Molecules, 2025).

A word on the Kd: it is the free concentration of one partner at which half of the binding sites on the other are occupied at equilibrium, for simple one-to-one binding. What is called inhibition is how much of the control response was suppressed.

Test in all cases: KINOMEscan
Common to all, as to format: binding

Test [1] deals with T1, DYRK1A (Homo sapiens, UniProt Q13627).
T1 construct: purchased Eurofins Pharma Discovery (KINOMEscan)
Particulars: for Kd: DYRK1A, N.B.: no binding at concentrations up to 30 µM. On the procedure: (§1) Kinase profiling was performed by KINOMEscan (Eurofins Pharma Discovery, San Diego, CA, USA), using a panel of 423 protein kinases, as described previously. Compounds were submitted for dissociation constant (Kd) determination toward several target kinases using KINOMEscan. […] Binding reactions were performed at room temperature for 1 h, and the fraction of kinase not bound to the test compound was determined by capture with an immobilized affinity ligand and quantified by quantitative polymerase chain reaction. The primary screening at fixed concentrations of the compound was performed in duplicate. For dissociation constant Kd determination, a 12-point half-log dilution series (a maximum concentration of 33 μM) was used.

The target of test [2] is T2, HASPIN (Homo sapiens, UniProt Q8TF76).
T2 construct: purchased Eurofins Pharma Discovery (KINOMEscan)
T2 sequence (Q8TF76 1-798): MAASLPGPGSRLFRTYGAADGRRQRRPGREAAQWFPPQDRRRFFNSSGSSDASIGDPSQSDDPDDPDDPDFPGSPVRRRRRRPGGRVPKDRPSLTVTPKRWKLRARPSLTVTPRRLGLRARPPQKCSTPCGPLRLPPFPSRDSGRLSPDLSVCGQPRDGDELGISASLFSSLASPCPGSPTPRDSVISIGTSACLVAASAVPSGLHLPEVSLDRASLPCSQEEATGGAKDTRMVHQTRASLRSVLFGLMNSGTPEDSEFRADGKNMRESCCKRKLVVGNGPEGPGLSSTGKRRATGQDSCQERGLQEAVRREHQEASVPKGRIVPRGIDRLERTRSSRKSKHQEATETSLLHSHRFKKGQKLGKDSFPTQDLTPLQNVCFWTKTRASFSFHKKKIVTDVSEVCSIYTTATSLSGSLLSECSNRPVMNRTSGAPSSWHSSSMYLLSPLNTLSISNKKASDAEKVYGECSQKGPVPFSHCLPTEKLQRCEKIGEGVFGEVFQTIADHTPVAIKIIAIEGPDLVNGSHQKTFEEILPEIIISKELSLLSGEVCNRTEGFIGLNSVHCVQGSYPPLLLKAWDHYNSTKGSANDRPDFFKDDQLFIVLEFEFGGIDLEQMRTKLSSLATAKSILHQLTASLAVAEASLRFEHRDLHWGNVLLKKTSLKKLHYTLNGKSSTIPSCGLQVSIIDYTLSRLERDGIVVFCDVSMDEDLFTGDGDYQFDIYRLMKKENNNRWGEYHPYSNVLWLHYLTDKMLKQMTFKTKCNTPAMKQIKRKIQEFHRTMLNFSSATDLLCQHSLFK
The conditions noted are these: for Kd: Haspin, N.B.: no binding at concentrations up to 30 µM. The method, then: as §1

For test [3], the target named is T3, HIPK1 (Homo sapiens, UniProt Q86Z02).
T3 construct: purchased Eurofins Pharma Discovery (KINOMEscan)
T3 sequence (Q86Z02 whole entry): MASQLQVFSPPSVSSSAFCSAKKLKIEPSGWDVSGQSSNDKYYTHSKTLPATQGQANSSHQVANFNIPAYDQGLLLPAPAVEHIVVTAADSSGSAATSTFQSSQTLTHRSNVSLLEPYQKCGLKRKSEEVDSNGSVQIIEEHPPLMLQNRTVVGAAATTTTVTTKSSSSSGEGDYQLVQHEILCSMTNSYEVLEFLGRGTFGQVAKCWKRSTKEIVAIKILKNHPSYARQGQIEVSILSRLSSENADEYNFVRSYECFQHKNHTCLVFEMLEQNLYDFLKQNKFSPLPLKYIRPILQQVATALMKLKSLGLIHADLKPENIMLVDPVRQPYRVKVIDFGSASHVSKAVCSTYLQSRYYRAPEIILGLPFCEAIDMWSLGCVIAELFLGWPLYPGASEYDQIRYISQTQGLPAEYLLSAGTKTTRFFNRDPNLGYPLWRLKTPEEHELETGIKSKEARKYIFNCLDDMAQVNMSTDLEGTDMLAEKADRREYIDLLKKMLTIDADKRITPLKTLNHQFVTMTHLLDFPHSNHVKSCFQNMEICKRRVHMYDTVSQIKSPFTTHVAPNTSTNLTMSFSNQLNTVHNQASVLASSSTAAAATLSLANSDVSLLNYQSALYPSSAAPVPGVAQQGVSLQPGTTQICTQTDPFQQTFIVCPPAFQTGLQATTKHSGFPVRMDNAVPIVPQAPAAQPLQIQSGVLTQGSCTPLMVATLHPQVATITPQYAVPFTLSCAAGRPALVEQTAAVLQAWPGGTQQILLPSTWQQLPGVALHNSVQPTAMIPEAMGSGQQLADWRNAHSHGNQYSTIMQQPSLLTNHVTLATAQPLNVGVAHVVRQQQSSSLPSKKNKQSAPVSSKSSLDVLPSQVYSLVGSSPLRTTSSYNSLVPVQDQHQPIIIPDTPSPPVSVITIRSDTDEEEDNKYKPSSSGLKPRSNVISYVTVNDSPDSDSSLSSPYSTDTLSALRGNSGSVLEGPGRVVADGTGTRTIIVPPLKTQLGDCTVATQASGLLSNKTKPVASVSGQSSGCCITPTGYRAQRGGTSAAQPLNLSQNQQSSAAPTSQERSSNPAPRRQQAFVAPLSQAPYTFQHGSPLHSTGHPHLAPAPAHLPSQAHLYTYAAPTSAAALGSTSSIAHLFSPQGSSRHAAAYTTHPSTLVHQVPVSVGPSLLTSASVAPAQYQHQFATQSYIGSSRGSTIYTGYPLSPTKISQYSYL
Particulars: for Kd: HIPK1, N.B.: no binding at concentrations up to 30 µM. On the procedure:
as §1

Test [4] addresses T4, NEK10 (Homo sapiens, UniProt Q6ZWH5).
T4 construct: purchased Eurofins Pharma Discovery (KINOMEscan)
T4 sequence (Q6ZWH5 1-1172): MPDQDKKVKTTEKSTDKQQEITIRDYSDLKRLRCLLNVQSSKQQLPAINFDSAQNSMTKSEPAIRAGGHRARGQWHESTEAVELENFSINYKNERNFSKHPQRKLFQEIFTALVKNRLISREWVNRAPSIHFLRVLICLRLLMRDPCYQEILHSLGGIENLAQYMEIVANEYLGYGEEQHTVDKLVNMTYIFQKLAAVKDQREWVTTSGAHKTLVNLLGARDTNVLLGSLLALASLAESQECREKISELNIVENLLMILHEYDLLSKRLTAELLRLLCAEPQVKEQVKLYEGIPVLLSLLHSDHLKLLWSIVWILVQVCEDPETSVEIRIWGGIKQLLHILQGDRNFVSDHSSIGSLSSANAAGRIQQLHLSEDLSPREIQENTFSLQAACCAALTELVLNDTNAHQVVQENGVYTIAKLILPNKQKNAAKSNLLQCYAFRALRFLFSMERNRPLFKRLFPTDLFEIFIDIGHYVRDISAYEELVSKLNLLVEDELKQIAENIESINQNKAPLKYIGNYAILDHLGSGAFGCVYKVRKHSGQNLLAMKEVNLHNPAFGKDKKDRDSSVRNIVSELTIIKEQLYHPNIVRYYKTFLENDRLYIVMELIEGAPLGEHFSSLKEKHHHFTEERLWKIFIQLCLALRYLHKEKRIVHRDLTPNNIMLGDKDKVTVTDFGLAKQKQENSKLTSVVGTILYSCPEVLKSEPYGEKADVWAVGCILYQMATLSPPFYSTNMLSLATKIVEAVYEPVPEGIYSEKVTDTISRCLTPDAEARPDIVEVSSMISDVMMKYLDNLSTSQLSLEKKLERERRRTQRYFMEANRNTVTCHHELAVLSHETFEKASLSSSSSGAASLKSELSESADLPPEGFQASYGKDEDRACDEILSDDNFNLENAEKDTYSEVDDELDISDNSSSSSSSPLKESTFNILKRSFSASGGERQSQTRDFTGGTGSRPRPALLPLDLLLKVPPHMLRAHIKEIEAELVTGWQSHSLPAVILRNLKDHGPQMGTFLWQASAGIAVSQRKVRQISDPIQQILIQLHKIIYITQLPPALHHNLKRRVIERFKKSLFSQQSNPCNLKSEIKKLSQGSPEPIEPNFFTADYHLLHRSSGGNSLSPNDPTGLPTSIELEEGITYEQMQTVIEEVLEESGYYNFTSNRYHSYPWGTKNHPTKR
The conditions noted are these: for Kd: NEK10, N.B.: no binding at concentrations up to 30 µM. On the procedure:
as §1

In test [5] the target is T5, DYRK1B (Homo sapiens, UniProt Q9Y463).
T5 construct: purchased Eurofins Pharma Discovery (KINOMEscan)
T5 sequence (Q9Y463 whole entry): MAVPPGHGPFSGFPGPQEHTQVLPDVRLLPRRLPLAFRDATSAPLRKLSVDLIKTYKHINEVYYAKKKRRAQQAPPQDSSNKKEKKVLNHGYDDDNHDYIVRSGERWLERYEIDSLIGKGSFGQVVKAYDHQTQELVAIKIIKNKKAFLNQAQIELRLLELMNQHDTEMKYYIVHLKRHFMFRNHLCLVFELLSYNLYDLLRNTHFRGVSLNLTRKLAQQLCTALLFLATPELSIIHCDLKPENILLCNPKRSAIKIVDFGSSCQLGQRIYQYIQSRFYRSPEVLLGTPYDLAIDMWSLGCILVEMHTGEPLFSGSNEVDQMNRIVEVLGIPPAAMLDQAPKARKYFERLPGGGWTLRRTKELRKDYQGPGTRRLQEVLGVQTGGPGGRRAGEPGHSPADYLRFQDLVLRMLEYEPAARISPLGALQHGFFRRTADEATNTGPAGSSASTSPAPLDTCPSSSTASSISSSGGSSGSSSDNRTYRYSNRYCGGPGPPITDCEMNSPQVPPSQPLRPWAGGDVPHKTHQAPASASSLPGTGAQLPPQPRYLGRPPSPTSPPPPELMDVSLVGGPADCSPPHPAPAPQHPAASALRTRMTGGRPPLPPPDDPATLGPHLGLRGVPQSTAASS
The method, then: as §1

Test [6] deals with T6, PRP4 (Homo sapiens, UniProt Q13523).
T6 construct: purchased Eurofins DiscoverX KINOMEscan
T6 sequence (Q13523 whole entry): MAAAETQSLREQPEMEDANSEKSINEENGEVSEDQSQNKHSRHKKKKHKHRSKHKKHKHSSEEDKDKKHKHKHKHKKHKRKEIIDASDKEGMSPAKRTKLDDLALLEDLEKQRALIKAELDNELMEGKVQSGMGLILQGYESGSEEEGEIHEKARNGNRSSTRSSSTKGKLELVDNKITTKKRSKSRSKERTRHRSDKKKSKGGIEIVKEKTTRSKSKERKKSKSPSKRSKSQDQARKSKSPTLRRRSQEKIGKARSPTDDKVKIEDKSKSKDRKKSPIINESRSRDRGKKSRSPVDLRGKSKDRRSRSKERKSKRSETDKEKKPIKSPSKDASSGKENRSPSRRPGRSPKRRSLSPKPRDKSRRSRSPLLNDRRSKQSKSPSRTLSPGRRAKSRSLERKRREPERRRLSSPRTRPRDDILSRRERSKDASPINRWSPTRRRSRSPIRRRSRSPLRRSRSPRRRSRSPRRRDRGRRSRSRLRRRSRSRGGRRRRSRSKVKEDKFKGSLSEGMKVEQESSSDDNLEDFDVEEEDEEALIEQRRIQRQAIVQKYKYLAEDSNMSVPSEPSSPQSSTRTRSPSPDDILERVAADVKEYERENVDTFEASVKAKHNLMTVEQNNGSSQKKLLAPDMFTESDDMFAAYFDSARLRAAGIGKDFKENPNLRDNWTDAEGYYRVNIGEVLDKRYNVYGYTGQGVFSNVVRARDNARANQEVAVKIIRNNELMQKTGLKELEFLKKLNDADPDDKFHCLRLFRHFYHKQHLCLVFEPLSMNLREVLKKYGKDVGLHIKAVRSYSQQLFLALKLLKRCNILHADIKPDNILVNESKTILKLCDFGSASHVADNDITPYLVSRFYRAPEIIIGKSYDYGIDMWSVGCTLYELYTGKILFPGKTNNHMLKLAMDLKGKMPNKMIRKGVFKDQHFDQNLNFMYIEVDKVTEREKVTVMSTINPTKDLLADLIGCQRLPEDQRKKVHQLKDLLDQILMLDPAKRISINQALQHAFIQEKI
On the procedure: as §1

Test [7] has as its target T7, JNK1 (Homo sapiens, UniProt P45983).
T7 construct: purchased Eurofins DiscoverX KINOMEscan
The method, then:
as §1

Test [8] has as its target T8, JAK2 (JH1domain-cat.) (Homo sapiens, UniProt O60674).
T8 construct: JAK2 (JH1domain-cat.); purchased Eurofins DiscoverX KINOMEscan
The method, then:
as §1

For test [9], the target named is T9, TAOK2 (Homo sapiens, UniProt Q9UL54).
T9 construct: purchased Eurofins DiscoverX KINOMEscan
The method, then:
as §1

Test [10] concerns the target T10, LATS2 (Homo sapiens, UniProt Q9NRM7).
T10 construct: purchased Eurofins DiscoverX KINOMEscan
On the procedure: as §1

Test [11] concerns the target T11, MAPKAPK5 (Homo sapiens, UniProt Q8IW41).
T11 construct: purchased Eurofins DiscoverX KINOMEscan
The method, then: as §1

The mark [12] stands for this setting: DYRK1B, N.B.: no binding at concentrations up to 30 µM.

SMILES strings stand for the structures.

T11 sequence (Q8IW41 whole entry): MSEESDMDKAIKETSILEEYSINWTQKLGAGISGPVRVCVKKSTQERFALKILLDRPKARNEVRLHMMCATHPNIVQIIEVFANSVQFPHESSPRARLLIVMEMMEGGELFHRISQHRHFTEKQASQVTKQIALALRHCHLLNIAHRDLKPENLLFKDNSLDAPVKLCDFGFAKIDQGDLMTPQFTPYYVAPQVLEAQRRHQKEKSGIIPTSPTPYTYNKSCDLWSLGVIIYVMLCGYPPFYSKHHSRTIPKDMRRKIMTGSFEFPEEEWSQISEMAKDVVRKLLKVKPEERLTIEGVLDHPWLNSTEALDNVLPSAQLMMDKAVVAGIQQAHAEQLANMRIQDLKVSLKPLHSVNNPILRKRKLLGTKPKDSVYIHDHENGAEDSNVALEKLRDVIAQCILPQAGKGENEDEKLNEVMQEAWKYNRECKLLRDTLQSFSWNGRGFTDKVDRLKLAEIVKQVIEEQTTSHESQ
T7 sequence (P45983 whole entry): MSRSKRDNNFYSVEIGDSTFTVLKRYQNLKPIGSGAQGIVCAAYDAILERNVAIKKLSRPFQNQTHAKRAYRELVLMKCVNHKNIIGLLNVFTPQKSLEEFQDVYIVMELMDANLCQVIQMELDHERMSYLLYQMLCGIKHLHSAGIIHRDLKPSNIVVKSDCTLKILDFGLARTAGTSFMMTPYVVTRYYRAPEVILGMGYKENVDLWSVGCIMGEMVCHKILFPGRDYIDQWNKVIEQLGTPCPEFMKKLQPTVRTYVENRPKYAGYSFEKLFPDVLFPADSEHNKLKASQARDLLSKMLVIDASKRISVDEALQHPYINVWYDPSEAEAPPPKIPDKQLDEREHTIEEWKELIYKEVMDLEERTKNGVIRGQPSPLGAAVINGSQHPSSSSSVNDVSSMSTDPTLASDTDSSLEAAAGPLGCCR
T8 sequence (O60674 840-1132 limits assumed): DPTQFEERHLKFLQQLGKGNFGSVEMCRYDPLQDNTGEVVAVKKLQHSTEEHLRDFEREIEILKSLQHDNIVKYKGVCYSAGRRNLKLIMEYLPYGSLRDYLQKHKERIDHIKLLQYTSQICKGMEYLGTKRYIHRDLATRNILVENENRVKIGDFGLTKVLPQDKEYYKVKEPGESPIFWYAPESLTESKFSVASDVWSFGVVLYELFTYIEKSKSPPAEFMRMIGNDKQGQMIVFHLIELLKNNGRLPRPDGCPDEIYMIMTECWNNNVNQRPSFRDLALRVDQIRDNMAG

In the case of `O=C1Nc2c(ccc3c2CCCC3)C1=NO` [Compound 5a, 3-(Hydroxyimino)-1,3,6,7,8,9-hexahydro-2H-benzo[g]indol-2-one], the Kd in test [1] is 850 ± 120 nM; in test [2], 610 ± 80 nM; in [3] it was 1100 ± 70 nM; in [4], 3200 ± 1000 nM. Moreover, the “Kd (µM)” value in test [5] (setting [12]) was “N.B”.
Take `O=C1Nc2c(cc([N+](=O)[O-])c3c2CCCC3)C1=NO` [Compound 5d, 3-(Hydroxyimino)-5-nitro-1,3,6,7,8,9-hexahydro-2H-benzo[g]indol-2-one]: the inhibition at 10 µM in test [6] was 38%; in test [7] it was 76%; in [1] (10 μM), 98.8%; in test [2] (10 μM) it was 99.5%; in [8], 42%; in test [9], 37%. Moreover, the inhibition at 10 µM in test [3] (10 μM) is 98.5%; in test [4] (10 μM) it was 100%; in [5] (10 μM) it was 96.4%; in [10], 28%; in test [11], 2%. Also, the Kd in [1] stood at 435 ± 78 nM; in [2], 165 ± 21 nM; in [3], 520 ± 113 nM; in [4], 660 ± 71 nM; in test [5] (setting [12]), 470 ± 20 nM.
